Experimental data as given in patent US12440467B2, “Treatment and prevention of infections using vegetable oil-derived polyols” (priority 2021, dated 2025).

Target: T1, CD4-gp120 complex (Human immunodeficiency virus type 1 group M subtype B, UniProt P04578)
T1 construct: recombinant gp120 (5 μg, Sigma-Aldrich); purchased Sigma-Aldrich (gp120); R&D Systems (CD4)
Test: Immunoprecipitation / Western blot of CD4-gp120 complex formation
Format: binding, HIV
Details: increasing concentration, Polyol:CD4-gp120 1:1000, 1:100, 1:10; polyol alone
Experimental: Immunoprecipitation studies conducted in the presence or absence of the linseed oil-derived polyol were performed to evaluate the impact of the polyol on the formation of the CD4-gp120 complex. A commercially available immunoprecipitation kit consisting of protein G-coated agarose beads (Invitrogen) was used, and immunoprecipitations were conducted according to the manufacturer's protocol. Briefly, the gp120 antibody (5 μg, Sigma-Aldrich) was bound to the protein G-coated agarose beads (50 μl) by placing the antibody and protein G agarose beads in 1.5 ml Eppendorf centrifuge tubes and incubated at room temperature for 10 minutes with rotation. The tubes were placed on the magnet (Life Technologies) and the supernatant was removed. […] The samples were heated for 5 minutes at 95° C., then placed on the magnet, the supernatants were collected and analyzed via western blot. […]
A standard western blot technique was used to evaluate the impact of the polyol on CD4-gp120 complex formation. […] Protein bands on the membrane were detected by chemiluminescence (Femto, ThermoFisher) and imaged on X-ray film (ThermoFisher). The blotted protein was quantified using the Image J software to measure the density, and the values were normalized to an untreated sample.
The inhibitory effect of the linseed oil-derived polyol on the formation of CD4 and […] complex was evaluated with immunoprecipitation (IP). […]

For CCC(O)C(O)CC(O)C(O)CC=CCCCCCCCC(=O)OC (stereo not shown) [linseed oil-derived polyol], the “effect on CD4-gp120 complex formation (gp120 bands)” value was “reduced the CD4-gp120 complex formation”.
